From patent US12187723B2 (BRISTOL-MYERS SQUIBB COMPANY, priority 2019, dated 2025)

Experiments:
[1] = target: T1, human TLR7 (Homo sapiens, UniProt Q9NYK1); assay: TLR7 inhibition reporter assay (HEK-Blue SEAP); assay type: cell-based; conditions: HEK-Blue cells overexpressing human TLR7, gardiquimod 7.5 μM, 22 hour incubation
T1 construct: host or cells: HEK-Blue cells
T1 sequence (Q9NYK1 27-1049): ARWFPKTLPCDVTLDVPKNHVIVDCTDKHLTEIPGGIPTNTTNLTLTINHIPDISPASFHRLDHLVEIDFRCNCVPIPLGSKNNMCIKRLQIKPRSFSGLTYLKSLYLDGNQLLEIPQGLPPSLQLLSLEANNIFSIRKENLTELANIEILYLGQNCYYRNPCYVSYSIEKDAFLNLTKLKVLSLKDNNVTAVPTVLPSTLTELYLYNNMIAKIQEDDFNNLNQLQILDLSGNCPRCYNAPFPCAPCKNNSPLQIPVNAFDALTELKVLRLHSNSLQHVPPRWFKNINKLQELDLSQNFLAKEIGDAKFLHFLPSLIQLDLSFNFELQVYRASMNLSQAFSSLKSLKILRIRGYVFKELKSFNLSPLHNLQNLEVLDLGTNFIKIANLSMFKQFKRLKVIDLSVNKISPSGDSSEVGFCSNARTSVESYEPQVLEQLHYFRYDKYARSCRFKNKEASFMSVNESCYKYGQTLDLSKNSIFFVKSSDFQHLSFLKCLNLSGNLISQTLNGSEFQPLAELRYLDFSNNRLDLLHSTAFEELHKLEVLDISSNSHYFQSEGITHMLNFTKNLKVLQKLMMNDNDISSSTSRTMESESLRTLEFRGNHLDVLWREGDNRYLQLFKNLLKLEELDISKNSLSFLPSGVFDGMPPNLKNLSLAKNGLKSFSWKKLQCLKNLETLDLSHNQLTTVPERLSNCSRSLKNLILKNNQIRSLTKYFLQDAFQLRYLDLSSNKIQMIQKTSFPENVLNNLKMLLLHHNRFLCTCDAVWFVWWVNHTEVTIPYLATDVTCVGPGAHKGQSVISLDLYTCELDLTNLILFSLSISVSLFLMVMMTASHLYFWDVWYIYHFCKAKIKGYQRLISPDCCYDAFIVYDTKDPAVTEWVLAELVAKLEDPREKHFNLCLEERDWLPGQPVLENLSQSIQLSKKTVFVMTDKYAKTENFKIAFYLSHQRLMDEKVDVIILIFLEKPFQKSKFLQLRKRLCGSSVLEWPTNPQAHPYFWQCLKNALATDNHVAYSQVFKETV
In short: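 SEAP readout via HEK-Blue Detection medium after 22 h at 37 °C, 5% CO2 defines inhibition, normalized between agonist-plus-DMSO wells and a reference inhibitor. Compound dose range 0.05 nM–50 μM; TLR7 cells at 15,000/well (gardiquimod), TLR8 at 20,000/well (R848).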

[2] = target: T2, human TLR8 (Homo sapiens, UniProt Q9NR97); assay: TLR8 inhibition reporter assay (HEK-Blue SEAP); assay type: cell-based; conditions: HEK-Blue cells overexpressing human TLR8, R848 15.9 μM, 22 hour incubation
T2 construct: host or cells: HEK-Blue cells
T2 sequence (Q9NR97 27-1041): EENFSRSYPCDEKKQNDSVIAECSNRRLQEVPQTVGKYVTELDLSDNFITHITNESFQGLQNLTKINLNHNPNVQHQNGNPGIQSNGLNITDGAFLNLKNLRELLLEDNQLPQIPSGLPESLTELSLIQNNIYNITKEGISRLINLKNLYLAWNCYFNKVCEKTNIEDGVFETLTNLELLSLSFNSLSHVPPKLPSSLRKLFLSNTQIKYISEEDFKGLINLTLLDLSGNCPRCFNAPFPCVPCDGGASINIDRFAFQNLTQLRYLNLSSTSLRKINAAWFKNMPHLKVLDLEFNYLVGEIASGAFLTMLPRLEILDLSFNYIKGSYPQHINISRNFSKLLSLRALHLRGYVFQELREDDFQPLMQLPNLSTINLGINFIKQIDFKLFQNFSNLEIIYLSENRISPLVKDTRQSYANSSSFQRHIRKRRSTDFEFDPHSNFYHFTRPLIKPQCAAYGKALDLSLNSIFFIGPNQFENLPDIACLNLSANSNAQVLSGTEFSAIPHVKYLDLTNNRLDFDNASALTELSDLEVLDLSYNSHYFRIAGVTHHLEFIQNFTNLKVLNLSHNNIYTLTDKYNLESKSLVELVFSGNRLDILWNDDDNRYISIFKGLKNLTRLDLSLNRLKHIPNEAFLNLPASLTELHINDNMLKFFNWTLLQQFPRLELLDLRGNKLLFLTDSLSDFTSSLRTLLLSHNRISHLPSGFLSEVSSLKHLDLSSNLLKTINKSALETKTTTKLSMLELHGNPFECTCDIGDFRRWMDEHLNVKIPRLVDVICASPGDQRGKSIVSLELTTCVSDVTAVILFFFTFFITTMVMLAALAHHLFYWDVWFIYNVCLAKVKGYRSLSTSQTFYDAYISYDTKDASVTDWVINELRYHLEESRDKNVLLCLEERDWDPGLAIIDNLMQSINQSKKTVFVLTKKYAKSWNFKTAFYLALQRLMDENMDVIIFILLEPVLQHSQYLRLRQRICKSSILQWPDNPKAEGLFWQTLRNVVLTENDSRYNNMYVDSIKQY
In short: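 HEK-Blue cells overexpressing human TLR7, TLR8 or TLR9 carry a SEAP reporter driven by NF-κB/AP-1 sites. Compounds (0.05 nM–50 μM) were preincubated 30 min at room temperature, then cells were stimulated with gardiquimod 7.5 μM (TLR7), R848 15.9 μM (TLR8) or ODN2006 5 nM (TLR9) for 22 h at 37 °C.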

| Structure (SMILES) | IC50 [1] | IC50 [2] |
| --- | --- | --- |
| COCCN1CCC[C@@H](n2c(=O)[nH]c3cc(-c4cc(OC)c5ncnn5c4)c(C(C)C)cc32)C1 (single isomer, unassigned) [Example 225] | 7.96 nM | 3.37 nM |
| COc1c(C)c(-c2cc3[nH]c(=O)n(C4CCC(N5CCC(F)(F)CC5)CC4)c3cc2C(C)C)cn2ncnc12 (single isomer, unassigned) [Example 229, 1-(4-(4,4-difluoropiperidin-1-yl)cyclohexyl)-6-isopropyl-5-(8-methoxy-7-methyl-[1,2,4]triazolo[1,5-a]pyridin-6-yl)-1,3-dihydro-2H-benzo[d]imidazol-2-one] | 7.31 nM | 2.18 nM |
| COc1c(C)c(-c2cc3[nH]c(=O)n(C4CCC(N5CCC(F)(F)CC5)CC4)c3cc2C(C)C)cn2ncnc12 (single isomer, unassigned) [Example 230, 1-(4-(4,4-difluoropiperidin-1-yl)cyclohexyl)-6-isopropyl-5-(8-methoxy-7-methyl-[1,2,4]triazolo[1,5-a]pyridin-6-yl)-1,3-dihydro-2H-benzo[d]imidazol-2-one] | 60.3 nM | 5.49 nM |
| COc1cc(-c2cc3[nH]c(=O)n(C4CCC(N5CCNC(=O)C5)CC4)c3cc2C(C)C)cn2ncnc12 (single isomer, unassigned) [Example 233, 6-isopropyl-5-(8-methoxy-[1,2,4]triazolo[1,5-a]pyridin-6-yl)-1-(4-(3-oxopiperazin-1-yl)cyclohexyl)-1,3-dihydro-2H-benzo[d]imidazol-2-one] | 11 nM | 1.9 nM |
| COc1cc(-c2cc3[nH]c(=O)n(C4CCC(N5CCNC(=O)C5)CC4)c3cc2C(C)C)cn2ncnc12 (single isomer, unassigned) [Example 234, 6-isopropyl-5-(8-methoxy-[1,2,4]triazolo[1,5-a]pyridin-6-yl)-1-(4-(3-oxopiperazin-1-yl)cyclohexyl)-1,3-dihydro-2H-benzo[d]imidazol-2-one] | 42.7 nM | 10.5 nM |
| COc1cc(-c2cc3[nH]c(=O)n(C4CCC(N5CC(O)(C(F)(F)F)C5)CC4)c3cc2C(C)C)cn2ncnc12 (single isomer, unassigned) [Example 242, 1-(4-(3-hydroxy-3-(trifluoromethyl)azetidin-1-yl)cyclohexyl)-6-isopropyl-5-(8-methoxy-[1,2,4]triazolo[1,5-a]pyridin-6-yl)-1,3-dihydro-2H-benzo[d]imidazol-2-one] | 10.4 nM | 1.12 nM |
| Cc1cc2c(cc1-c1cc(C)c3ncnn3c1)[nH]c(=O)n2[C@H]1CCCN(C)C1 [Example 11, (S)-6-methyl-5-(8-methyl-[1,2,4]triazolo[1,5-a]pyridin-6-yl)-1-(1-methylpiperidin-3-yl)-1,3-dihydro-2H-benzo[d]imidazol-2-one] | 276 nM | 143 nM |
| CCN1CCC[C@H](n2c(=O)[nH]c3cc(-c4cc(C)c5ncnn5c4)c(C)cc32)C1 [Example 12, (S)-1-(1-ethylpiperidin-3-yl)-6-methyl-5-(8-methyl-[1,2,4]triazolo[1,5-a]pyridin-6-yl)-1,3-dihydro-2H-benzo[d]imidazol-2-one] | 144 nM | 92.5 nM |
| Cc1cc2c(cc1-c1cc(C)c3ncnn3c1)[nH]c(=O)n2[C@H]1CCCN(C(C)C)C1 [Example 13, (S)-1-(1-isopropylpiperidin-3-yl)-6-methyl-5-(8-methyl-[1,2,4]triazolo[1,5-a]pyridin-6-yl)-1,3-dihydro-2H-benzo[d]imidazol-2-one] | 124 nM | 62.9 nM |
| Cc1cc2c(cc1-c1cc(C)c3ncnn3c1)[nH]c(=O)n2[C@H]1CCCN(C2COC2)C1 [Example 14, (S)-6-methyl-5-(8-methyl-[1,2,4]triazolo[1,5-a]pyridin-6-yl)-1-(1-(oxetan-3-yl)piperidin-3-yl)-1,3-dihydro-2H-benzo[d]imidazol-2-one] | 787 nM | 155 nM |
| Cc1cc2c(cc1-c1cc(C)c3ncnn3c1)[nH]c(=O)n2[C@@H]1CCCN(C)C1 [Example 15, (R)-6-methyl-5-(8-methyl-[1,2,4]triazolo[1,5-a]pyridin-6-yl)-1-(1-methylpiperidin-3-yl)-1,3-dihydro-2H-benzo[d]imidazol-2-one] | 24.6 nM | 22.9 nM |
| CCN1CCC[C@@H](n2c(=O)[nH]c3cc(-c4cc(C)c5ncnn5c4)c(C)cc32)C1 [Example 16, (R)-1-(1-ethylpiperidin-3-yl)-6-methyl-5-(8-methyl-[1,2,4]triazolo[1,5-a]pyridin-6-yl)-1,3-dihydro-2H-benzo[d]imidazol-2-one] | 17 nM | 31.4 nM |

Compounds with a lower IC50 [1], results first:

| IC50 [1] | IC50 [2] | Structure (SMILES) |
| --- | --- | --- |
| 5.33 nM | 5.19 nM | COc1cc(-c2cc3[nH]c(=O)n([C@@H]4CCCN(C5CCCOC5)C4)c3cc2C(C)C)cn2ncnc12 (single isomer, unassigned) [Example 218] |
| 3.54 nM | 0.35 nM | COc1cc(-c2cc3[nH]c(=O)n(C4CCC(N5CC6(CCOCC6)C5)CC4)c3cc2C(C)C)cn2ncnc12 (single isomer, unassigned) [Example 236, 1-(4-(7-oxa-2-azaspiro[3.5]nonan-2-yl)cyclohexyl)-6-isopropyl-5-(8-methoxy-[1,2,4]triazolo[1,5-a]pyridin-6-yl)-1,3-dihydro-2H-benzo[d]imidazol-2-one] |
| 3.01 nM | 0.49 nM | COc1cc(-c2cc3[nH]c(=O)n(C4CCC(N5CC(O)(C(F)(F)F)C5)CC4)c3cc2C(C)C)cn2ncnc12 (single isomer, unassigned) [Example 241, 1-(4-(3-hydroxy-3-(trifluoromethyl)azetidin-1-yl)cyclohexyl)-6-isopropyl-5-(8-methoxy-[1,2,4]triazolo[1,5-a]pyridin-6-yl)-1,3-dihydro-2H-benzo[d]imidazol-2-one] |
| 1.52 nM | 0.39 nM | COc1cc(-c2cc3[nH]c(=O)n(C4CCC(N5CC6(CCOCC6)C5)CC4)c3cc2C(C)C)cn2ncnc12 (single isomer, unassigned) [Example 235, 1-(4-(7-oxa-2-azaspiro[3.5]nonan-2-yl)cyclohexyl)-6-isopropyl-5-(8-methoxy-[1,2,4]triazolo[1,5-a]pyridin-6-yl)-1,3-dihydro-2H-benzo[d]imidazol-2-one] |
| 0.05 nM | 0.15 nM | COc1cc(-c2cc3[nH]c(=O)n([C@@H]4CCCN(C5CCCOC5)C4)c3cc2C(C)C)cn2ncnc12 (single isomer, unassigned) [Example 219] |
